Each structure is given as a SMILES string.

Experimental findings from patent US8435980B2 (AbbVie Inc., priority 2009, dated 2013) are described below.

For the first assay, the target named is T1, Cdc7 (BEV coexpressed huCDC7/DBF4) (Homo sapiens, UniProt O00311).
T1 construct: made in house; host or cells: BEV (baculovirus expression vector) co-expression; insect cells are implied but no cell line is named
T1 sequence (O00311 whole entry): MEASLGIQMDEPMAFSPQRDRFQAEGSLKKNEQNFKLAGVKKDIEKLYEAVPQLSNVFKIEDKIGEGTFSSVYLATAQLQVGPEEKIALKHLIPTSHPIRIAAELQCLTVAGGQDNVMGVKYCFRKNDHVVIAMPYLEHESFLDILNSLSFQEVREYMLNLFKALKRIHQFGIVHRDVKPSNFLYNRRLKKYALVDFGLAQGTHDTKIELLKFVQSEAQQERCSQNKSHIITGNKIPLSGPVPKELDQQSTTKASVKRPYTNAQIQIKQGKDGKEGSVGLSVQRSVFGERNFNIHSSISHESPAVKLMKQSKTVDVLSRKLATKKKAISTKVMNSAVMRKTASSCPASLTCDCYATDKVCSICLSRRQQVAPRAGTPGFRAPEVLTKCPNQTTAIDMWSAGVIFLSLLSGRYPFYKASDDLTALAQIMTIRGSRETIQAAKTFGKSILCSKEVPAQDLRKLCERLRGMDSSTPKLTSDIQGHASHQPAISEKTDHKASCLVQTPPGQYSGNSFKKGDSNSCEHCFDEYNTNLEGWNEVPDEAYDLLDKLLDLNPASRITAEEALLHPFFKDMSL
T1 sequence (Q9UBU7 whole entry partner): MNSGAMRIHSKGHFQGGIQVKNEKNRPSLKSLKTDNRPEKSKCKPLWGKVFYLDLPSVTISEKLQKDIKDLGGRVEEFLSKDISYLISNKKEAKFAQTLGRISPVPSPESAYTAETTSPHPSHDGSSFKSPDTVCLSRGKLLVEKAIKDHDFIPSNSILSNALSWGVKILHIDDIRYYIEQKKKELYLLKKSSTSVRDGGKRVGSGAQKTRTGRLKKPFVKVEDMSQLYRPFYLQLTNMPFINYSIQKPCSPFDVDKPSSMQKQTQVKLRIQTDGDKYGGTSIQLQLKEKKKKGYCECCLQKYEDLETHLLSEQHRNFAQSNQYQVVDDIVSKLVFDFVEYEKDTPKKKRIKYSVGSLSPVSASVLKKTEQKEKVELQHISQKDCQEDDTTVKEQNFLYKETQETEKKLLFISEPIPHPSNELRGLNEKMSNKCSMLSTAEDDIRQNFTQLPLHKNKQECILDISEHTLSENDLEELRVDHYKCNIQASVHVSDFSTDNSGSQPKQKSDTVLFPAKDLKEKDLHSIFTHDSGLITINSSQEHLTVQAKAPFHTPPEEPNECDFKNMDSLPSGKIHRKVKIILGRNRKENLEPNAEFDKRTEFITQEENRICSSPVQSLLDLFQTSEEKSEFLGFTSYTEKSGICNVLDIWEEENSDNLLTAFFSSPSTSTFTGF
Description: Cdc7 enzyme inhibition assay ([33P]ATP, biotinylated peptide substrate, FlashPlate). The format is biochemical. The conditions noted are these: Table 2; Comparative Example lacking the chloro substituent versus the chloro Example. How it is done: Cdc7 (BEV coexpressed huCDC7/DBF4) is prepared internally. Cdc7 assays are conducted as follows with final concentrations as listed. […] Reactions are quenched after 1 hr by the addition of 90 μL stop buffer (50 mM EDTA, 2M NaCl). […] (Ki) for exemplary compounds.
As to `c1cnc2[nH]cc(-c3ccnc(NC4CCCCC4)c3)c2c1` [Comparative Example 1, N-cyclohexyl-4-(1H-pyrrolo[2,3-b]pyridin-3-yl)pyridin-2-amine, reference compound], the “Ki ratio comparisons (Ki Comparative Example/Ki Example)” value was determined as 10. On to `Cc1cc(-c2c[nH]c3ncccc23)cc(NC2CCCCC2)n1` [Comparative Example 2, N-cyclohexyl-6-methyl-4-(1H-pyrrolo[2,3-b]pyridin-3-yl)pyridin-2-amine, reference compound], for which the “Ki ratio comparisons (Ki Comparative Example/Ki Example)” value came to 14. Same read-out and setting: in the case of `Cc1cc(-c2c[nH]c3ncccc23)cc(NCc2ccccc2)n1` [Comparative Example 3, N-benzyl-6-methyl-4-(1H-pyrrolo[2,3-b]pyridin-3-yl)pyridin-2-amine, reference compound] it was 75; in that of `Cc1cc(-c2c[nH]c3ncccc23)cc(N[C@H]2CC[C@H](O)CC2)n1` [Comparative Example 4, Trans-4-{[6-methyl-4-(1H-pyrrolo[2,3-b]pyridin-3-yl)pyridin-2-yl]amino}cyclohexanol, reference compound], 54; in that of `N#Cc1cc(-c2c[nH]c3ncccc23)cc(NC2CCCCC2)n1` [Comparative Example 5, 6-(cyclohexylamino)-4-(1H-pyrrolo[2,3-b]pyridin-3-yl)pyridine-2-carbonitrile, reference compound], 9. Same read-out and setting: then `N#Cc1cc(-c2c[nH]c3ncccc23)cc(NCc2ccccc2)n1` [Comparative Example 6, 6-(benzylamino)-4-(1H-pyrrolo[2,3-b]pyridin-3-yl)pyridine-2-carbonitrile, reference compound], with 5; and `NC(=O)c1cc(-c2c[nH]c3ncccc23)cc(NCc2ccccc2)n1` [Comparative Example 7, 6-(benzylamino)-4-(1H-pyrrolo[2,3-b]pyridin-3-yl)pyridine-2-carboxamide, reference compound], with 45.

The same assay, now with this note: Table 3; enzyme inhibition data (Ki).
`CS(=O)(=O)N[C@@H]1CCCC[C@H]1Nc1cc(-c2c[nH]c3ncccc23)cc(Cl)n1` (relative stereo) [Example 110, N-[(trans)-2-{[6-chloro-4-(1H-pyrrolo[2,3-b]pyridin-3-yl)pyridin-2-yl]amino}cyclohexyl]methanesulfonamide]: the Ki was under 0.01 µM.

`O=C(N[C@@H]1CCCC[C@H]1Nc1cc(-c2c[nH]c3ncccc23)cc(Cl)n1)C1CCN1` (relative stereo) [Example 120, N-[(trans)-2-{[6-chloro-4-(1H-pyrrolo[2,3-b]pyridin-3-yl)pyridin-2-yl]amino}cyclohexyl]azetidine-2-carboxamide] returned a Ki of under 0.01 µM. `CN1CCC(C(=O)N[C@H]2CC[C@H](Nc3cc(-c4c[nH]c5ncccc45)cc(Cl)n3)CC2)C1` (relative stereo) [Example 125, N-(trans-4-{[6-chloro-4-(1H-pyrrolo[2,3-b]pyridin-3-yl)pyridin-2-yl]amino}cyclohexyl)-1-methylpyrrolidine-3-carboxamide] returned a Ki of under 0.01 µM.

`N[C@H]1CCCC[C@H]1Nc1cc(-c2c[nH]c3ncccc23)cc(Cl)n1` (relative stereo) [Example 131, (cis)-N-[6-chloro-4-(1H-pyrrolo[2,3-b]pyridin-3-yl)pyridin-2-yl]cyclohexane-1,2-diamine] registered a Ki of under 0.01 µM. The same measure, in the same setting: then `CS(=O)(=O)N[C@@H]1CCCC[C@@H]1Nc1cc(-c2c[nH]c3ncccc23)cc(Cl)n1` (relative stereo) [Example 132, N-[(cis)-2-{[6-chloro-4-(1H-pyrrolo[2,3-b]pyridin-3-yl)pyridin-2-yl]amino}cyclohexyl]methanesulfonamide], with under 0.01 µM; and `CCN1CCC1C(=O)N[C@H]1CC[C@H](Nc2cc(-c3c[nH]c4ncccc34)cc(Cl)n2)CC1` (relative stereo) [Example 134, N-(trans-4-{[6-chloro-4-(1H-pyrrolo[2,3-b]pyridin-3-yl)pyridin-2-yl]amino}cyclohexyl)-1-ethylazetidine-2-carboxamide], with under 0.01 µM; and `O=C(N[C@H]1CC[C@H](Nc2cc(-c3c[nH]c4ncccc34)cc(Cl)n2)CC1)C1CCN1C1CCCC1` (relative stereo) [Example 136, N-(trans-4-{[6-chloro-4-(1H-pyrrolo[2,3-b]pyridin-3-yl)pyridin-2-yl]amino}cyclohexyl)-1-cyclopentylazetidine-2-carboxamide], with under 0.01 µM. In turn, `CN(C)[C@@H]1CCCC[C@@H]1Nc1cc(-c2c[nH]c3ncccc23)cc(Cl)n1` (relative stereo) [Example 140, (cis)-N′-[6-chloro-4-(1H-pyrrolo[2,3-b]pyridin-3-yl)pyridin-2-yl]-N,N-dimethylcyclohexane-1,2-diamine] returned a Ki of under 0.01 µM. Same read-out and setting: then `O=S(=O)(N[C@H]1CC[C@H](Nc2cc(-c3c[nH]c4ncccc34)cc(Cl)n2)CC1)C1CCNC1` (relative stereo) [Example 151, N-(trans-4-{[6-chloro-4-(1H-pyrrolo[2,3-b]pyridin-3-yl)pyridin-2-yl]amino}cyclohexyl)pyrrolidine-3-sulfonamide], with under 0.01 µM; and `NC1CCC(N[C@H]2CC[C@H](Nc3cc(-c4c[nH]c5ncccc45)cc(Cl)n3)CC2)CC1` (relative stereo) [Example 158, trans-N-(4-aminocyclohexyl)-N′-[6-chloro-4-(1H-pyrrolo[2,3-b]pyridin-3-yl)pyridin-2-yl]cyclohexane-1,4-diamine], with under 0.01 µM.

Compound `CCN1CCC(C(=O)N[C@H]2CC[C@H](Nc3cc(-c4c[nH]c5ncc(OC)cc45)cc(Cl)n3)CC2)C1` (relative stereo) [Example 219, N-(trans-4-{[6-chloro-4-(5-methoxy-1H-pyrrolo[2,3-b]pyridin-3-yl)pyridin-2-yl]amino}cyclohexyl)-1-ethylpyrrolidine-3-carboxamide] showed a Ki of under 0.01 µM. Turning to `CCN1CCC(C(=O)N[C@H]2CC[C@H](Nc3cc(-c4c[nH]c5ncccc45)cc(Cl)n3)CC2)C1` (relative stereo) [Example 326, N-(trans-4-{[6-chloro-4-(1H-pyrrolo[2,3-b]pyridin-3-yl)pyridin-2-yl]amino}cyclohexyl)-1-ethylpyrrolidine-3-carboxamide], the Ki was under 0.01 µM.

As to `CN1CCC[C@H]1C(=O)N[C@H]1CC[C@H](Nc2cc(-c3c[nH]c4ncccc34)cc(Cl)n2)CC1` (relative stereo) [Example 336, N-(trans-4-{[6-chloro-4-(1H-pyrrolo[2,3-b]pyridin-3-yl)pyridin-2-yl]amino}cyclohexyl)-1-methylprolinamide], the Ki is under 0.01 µM.

Compound `CN1CCCCC1C(=O)N[C@H]1CC[C@H](Nc2cc(-c3c[nH]c4ncccc34)cc(Cl)n2)CC1` (relative stereo) [Example 337, N-(trans-4-{[6-chloro-4-(1H-pyrrolo[2,3-b]pyridin-3-yl)pyridin-2-yl]amino}cyclohexyl)-1-methylpiperidine-2-carboxamide] yielded a Ki of under 0.01 µM.

Regarding `CN1C(=O)CC[C@H]1C(=O)N[C@H]1CC[C@H](Nc2cc(-c3c[nH]c4ncccc34)cc(Cl)n2)CC1` (relative stereo) [Example 342, N-(trans-4-{[6-chloro-4-(1H-pyrrolo[2,3-b]pyridin-3-yl)pyridin-2-yl]amino}cyclohexyl)-1-methyl-5-oxoprolinamide], the Ki is under 0.01 µM. Still for that read-out and setting: in the case of `O=C(CNC1CN2CCC1CC2)N[C@H]1CC[C@H](Nc2cc(-c3c[nH]c4ncccc34)cc(Cl)n2)CC1` (relative stereo) [Example 351, N~2~-1-azabicyclo[2.2.2]oct-3-yl-N-(trans-4-{[6-chloro-4-(1H-pyrrolo[2,3-b]pyridin-3-yl)pyridin-2-yl]amino}cyclohexyl)glycinamide] it was under 0.01 µM; in that of `CC1CCC(NCC(=O)N[C@H]2CC[C@H](Nc3cc(-c4c[nH]c5ncccc45)cc(Cl)n3)CC2)CC1` (relative stereo) [Example 354, N-(trans-4-{[6-chloro-4-(1H-pyrrolo[2,3-b]pyridin-3-yl)pyridin-2-yl]amino}cyclohexyl)-N~2~-(4-methylcyclohexyl)glycinamide], under 0.01 µM. The compound `O=C(NC1CCC(N[C@H]2CC[C@H](Nc3cc(-c4c[nH]c5ncccc45)cc(Cl)n3)CC2)CC1)OCc1ccccc1` (relative stereo) [Example 363, benzyl {4-[(trans-4-{[6-chloro-4-(1H-pyrrolo[2,3-b]pyridin-3-yl)pyridin-2-yl]amino}cyclohexyl)amino]cyclohexyl}carbamate] came in with a Ki of under 0.01 µM. `CC(=O)NC1CCC(N(C(C)=O)[C@H]2CC[C@H](Nc3cc(-c4c[nH]c5ncccc45)cc(Cl)n3)CC2)CC1` (relative stereo) [Example 365, N-[4-(acetylamino)cyclohexyl]-N-(trans-4-{[6-chloro-4-(1H-pyrrolo[2,3-b]pyridin-3-yl)pyridin-2-yl]amino}cyclohexyl)acetamide] returned a Ki of under 0.01 µM. The same measure, in the same setting: in the case of `CC(c1ccccc1)N1CC(C(=O)N[C@H]2CC[C@H](Nc3cc(-c4c[nH]c5ncccc45)cc(Cl)n3)CC2)C1` (relative stereo) [Example 396, N-(trans-4-{[6-chloro-4-(1H-pyrrolo[2,3-b]pyridin-3-yl)pyridin-2-yl]amino}cyclohexyl)-1-(1-phenylethyl)azetidine-3-carboxamide] it was under 0.01 µM. The compound `CCN1CCC(C(=O)N[C@H]2CC[C@H](Nc3nc(Cl)cc(-c4c[nH]c5ncccc45)n3)CC2)C1` (relative stereo) [Example 462, N-(trans-4-{[4-chloro-6-(1H-pyrrolo[2,3-b]pyridin-3-yl)pyrimidin-2-yl]amino}cyclohexyl)-1-ethylpyrrolidine-3-carboxamide] showed a Ki of under 0.01 µM.

As usually defined, the Ki is a measure of affinity in units of concentration, obtained from inhibition or displacement. Read a low Ki as higher affinity.
